Values after ≈ are worked out from the molar mass of the structure shown. Each block holds one molecule with its values, some of them ahead of it.
Key:
Format in all cases: physicochemical
[1] = Solubility of triclosan in the initial chitosan-cyclodextrin solutions (Example 7); conditions: aqueous with cosolvent or surfactant or cyclodextrin, thermodynamic from solid
Procedure: (§1) Nanoparticles of chitosan-cyclodextrin were obtained according to the method described in example 2, but adding a sufficient quantity of the drug triclosan to the initial solutions in order to oversaturate the solution. The drug that was not dissolved by the cyclodextrin-polymer mixture was discarded during the filtration process (through 0.45 .m) which was conducted prior to crosslinking the polymer by means of ionotropic crosslinking (see example 2). […] The triclosan was measured by means of a spectrophotometric method (.=280 nm).

[2] = Encapsulation efficiency and load of triclosan in nanoparticles (Example 7)
Procedure: as §1
(§2) The encapsulation efficiency (EE) refers to the percentage of drug which is trapped in the chitosan-cyclodextrin system with respect to the quantity of drug added in the process of preparation of the nanoparticles. The drug load is indirectly determined from a calculation of the non-encapsulated drug which remains dissolved in the nanoparticles' suspension medium. The difference between this value and the theoretical drug content is taken to be the quantity of drug loaded in the nanoparticles. The drug load percentage which appears in the table is the percentage with respect to the quantity of encapsulated drug in 100 mg of nanoparticle.

[3] = Encapsulation efficiency and load of triclosan, chitosanase degradation (Example 10); conditions: 80% water/20% ethanol
Procedure: (§3) In a mixture of 80% water and 20% ethanol, solutions (3 ml) of chitosan (Protasan Cl110, 0.2%), HP.CD (0, 1.28 and 2.56 mM) and triclosan were prepared in a sufficient quantity to oversaturate the solution. These solutions were incubated for 24 h under magnetic stirring and, subsequently, filtered through a 0.45-.m filter and crosslinked by the addition of 1.2 ml of tripolyphosphate dissolved in a mixture of 80% water and 20% ethanol at a concentration of 1.25 mg/ml. The nanoparticles were isolated by centrifugation at 16000×g and resuspended in water. The size of the resulting particles and the polydispersion thereof were characterised by means of photon correlation spectroscopy (PCS). The quantity of encapsulated drug was determined by the degradation of an aliquot of the resuspended nanoparticles with the enzyme chitosanase (Chitosanase-RD, Pias Co, Japan), and the assessment was performed by means of spectrophotometry (.=280 nm).

[4] = Dissolved triclosan in 80% water / 20% ethanol phase (Example 10)
Procedure: as §3

[5] = Encapsulation efficiency and load of furosemide in nanoparticles (Example 8)
Description: as §2
The drug that was not dissolved by the cyclodextrin-polymer mixture was discarded during the filtration process (through 0.45 .m) which was conducted prior to crosslinking the polymer (see example 3). […]. […]

[6] = type HPCD •, 25 mM (first 25 mM line)
[7] = type HPCD •, 25 mM (second 25 mM line)

SMILES: Oc1cc(Cl)ccc1Oc1ccc(Cl)cc1Cl [triclosan]
solubility ([1]; HPCD 0 mM): 0.068 ± 0.017 mg/mL (≈ 235 µM)
solubility ([1]; type HPCD •, 3.14 mM): 0.211 ± 0.024 mg/mL (≈ 729 µM)
solubility ([1]; type HPCD •, 6.29 mM): 0.588 ± 0.018 mg/mL (≈ 2030 µM)
solubility [1, 6]: 1.12 ± 0.013 mg/mL (≈ 3870 µM)
solubility [1, 7]: 0.87 ± 0.059 mg/mL (≈ 3000 µM)
triclosan EE ([2]; HPCD 0 mM): 12.5 ± 8%
triclosan load ([2]; HPCD 0 mM): 0.8 ± 0.3%
triclosan EE ([2]; type HPCD •, 3.14 mM): 5.2 ± 7%
triclosan load ([2]; type HPCD •, 3.14 mM): 1.1 ± 0.2%
triclosan EE ([2]; type HPCD •, 6.29 mM): 4.8 ± 3%
triclosan load ([2]; type HPCD •, 6.29 mM): 2.2 ± 0.1%
triclosan EE [2, 6]: 5.5 ± 5%
triclosan load [2, 6]: 3.1 ± 0.1%
triclosan EE [2, 7]: 4.6 ± 4%
triclosan load [2, 7]: 2.0 ± 0.1%
load of triclosan ([3]; HP•CD 0 mM): 2.2 ± 0.9%
triclosan EE ([3]; HP•CD 0 mM): 22.3 ± 1.4%
load of triclosan ([3]; HP•CD 1.28 mM): 7.4 ± 1.3%
triclosan EE ([3]; HP•CD 1.28 mM): 37.7 ± 7.3%
load of triclosan ([3]; HP•CD 2.56 mM): 8.7 ± 0.2%
triclosan EE ([3]; HP•CD 2.56 mM): 33.5 ± 2.7%
dissolved triclosan ([4]; HP•CD 0 mM): 719 ± 79 mg/L
dissolved triclosan ([4]; HP•CD 1.28 mM): 2536 ± 283 mg/L
dissolved triclosan ([4]; HP•CD 2.56 mM): 3521 ± 213 mg/L

furosemide EE ([5]; HPCD 0 mM): 22.3 ± 1.4%
load of furosemide ([5]; HPCD 0 mM): 0.23 ± 0.07%
furosemide EE ([5]; type HPCD •, 3.14 mM): 17.1 ± 3.0%
load of furosemide ([5]; type HPCD •, 3.14 mM): 0.89 ± 0.04%
furosemide EE ([5]; type HPCD •, 6.29 mM): 12.1 ± 1.3%
load of furosemide ([5]; type HPCD •, 6.29 mM): 1.43 ± 0.24%
furosemide EE [5, 6]: 7.2 ± 3.1%
load of furosemide [5, 6]: 2.39 ± 0.72%
furosemide EE [5, 7]: 8.8 ± 2.7%
load of furosemide [5, 7]: 1.92 ± 0.55%
SMILES: NS(=O)(=O)c1cc(C(=O)O)c(NCc2ccco2)cc1Cl [furosemide]

— patent US20080220030A1, “Nanoparticles Comprising Chitosan and Cyclodextrin” (UNIVERSIDADE DE SANTIAGO DE COMPOSTELA, priority 2005, published 2008)
